Assay [1] relates to ICR mice, cutaneous barrier function disrupted by acetone/diethylether and water. As to the kind of experiment: Scratching action of mice with disrupted cutaneous barrier function, subcutaneous administration (Example 1). It is filed as in vivo, mouse. The settings on record: subcutaneous 10 mg/kg at barrier-disrupted site, 15 min before recording; scratching counted for 2 hours; mean ± standard error, 8 mice. On the procedure: A number of scratching action of 8 mice per 2 hours is shown by the average percentage±standard error based on the average of the control group (100%). “S” represents the control group which received saline, “L” represents L-NAME administrated group and “D” represents D-NAME administrated group.
The evaluation of the therapeutic effects of the pharmaceutical composition of the present invention may be conducted by using the small test animals produced by the method developed by the inventors, such as mice of which the cutaneous barrier function have been disrupted. Such animals may be produced according to the following procedure: An noninflammation dermal lesion caused by the disruption of cutaneous barrier function may be induced by degreasing the small test animals by applying an organic solvent to the glabrous skin of the animals and then treating with water. […] For example, the hydration of the stratum corneum can be determined by a technique of conductimetry, determination of electrostatic capacity or FT-IR method. Transepidermal water loss can be non-invasively determined with an electric measuring instrument or the like so as not to influence the scratching action. […]

The next assay concerns NC mouse. To be noted: administration of NOS inhibitor; cited from earlier work.

`COC(=O)[C@H](N)CCCN=C(N)N[N+](=O)[O-]` [D-NAME, Nw-nitro-D-arginine methyl ester]: the “number of the scratching action relative to saline control group (100%)” value in assay [1] is reported as 90.9±15.2%.
As for `COC(=O)[C@@H](N)CCCNC(=N)N[N+](=O)[O-]` [L-NAME, Nw-nitro-L-arginine methyl ester], the “effect on scratching action” value in the assay with NC mouse is “scratching action can be suppressed”. The “number of the scratching action relative to saline control group (100%)” value in assay [1] is recorded as 27.9±6.4%.

These data come from patent US20020156129A1, “Method of treating pruritus and a pharmaceutical composition for the method” (priority 2001, published 2002).
